{"source": "patent US10335503B2", "about": "“Compound that specifically binds to AMPA receptor” (Public University Corporation Yokohama City University, priority 2015, dated 2019)", "key": {"[1]": {"tested_on": "AMPA receptor", "assay": "Electrophysiological experiment: AMPA current by whole-cell recording in acute hippocampus section", "assay_type": "cell-based, rat", "conditions": "150 μM in ACSF for 15 minutes, CA1 pyramidal cell, ground state converted as 1", "method": "In the LC-MS/MS experiment, all of the synthesized compounds were dissolved in 100% DMSO so as to have a concentration of 2.5 mM, diluted with physiological saline water immediately before administration (PEPA (1.2 pmol/g), M-1 (12 pmol/g), K-2 (12 pmol/g), M-3 (60 pmol/g), and M-2 (240 pmol/g)), and administered by the parenteral route. In the electrophysiological experiment, PEPA and K-2 were dissolved in 100% DMSO so as to have a concentration of 150 mM, diluted with ACSF as a reflux liquid immediately before the experiment so as to have a concentration of 150 μM and then used. […]\nA 7- to 8-week-old male SD rat was used. […] The section was left to stand still in ACSF at room temperature for 60 minutes, and then the AMPA current was measured by a whole-cell recording method. 100 μM of picrotoxin and 100 μM of DL-APV were administered under the condition that the ACSF was refluxed at a rate of 3 ml/min, and then only the AMPA current was isolated and measured.\nThe recording electrode was placed on a pyramidal cell in CA1, and the exciting electrode was placed on the Schaffer fiber separated away from the recording cell by 100 to 200 μm. […] The AMPA current in the ground state was recorded for 5 minutes, reflux was thereafter performed using ACSF added with PEPA or K-2 for 15 minutes, and then the AMPA current was recorded in the reflux liquid not containing PEPA or K-2 for 30 minutes. […]"}, "[2]": {"biological_target": "Histamine H3 (Homo sapiens, UniProt Q9Y5N1)", "sequence (Q9Y5N1 whole entry)": "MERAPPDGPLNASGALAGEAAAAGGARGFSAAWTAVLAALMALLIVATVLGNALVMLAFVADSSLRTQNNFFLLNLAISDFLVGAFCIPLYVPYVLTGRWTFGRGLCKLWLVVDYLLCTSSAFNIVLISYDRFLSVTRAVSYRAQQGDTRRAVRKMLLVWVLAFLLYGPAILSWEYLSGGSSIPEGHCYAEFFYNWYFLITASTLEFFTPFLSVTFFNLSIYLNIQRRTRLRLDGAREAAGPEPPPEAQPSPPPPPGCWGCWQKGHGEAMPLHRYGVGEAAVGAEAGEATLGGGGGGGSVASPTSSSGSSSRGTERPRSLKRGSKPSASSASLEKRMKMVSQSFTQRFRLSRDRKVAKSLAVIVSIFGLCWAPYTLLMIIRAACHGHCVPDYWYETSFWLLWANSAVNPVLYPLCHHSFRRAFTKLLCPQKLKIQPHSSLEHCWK", "assay": "Receptor binding panel: Histamine H3", "conditions": "K-2 at 1 × 10^−7 mol/L"}, "[3]": {"biological_target": "Norepinephrine transporter (Homo sapiens, UniProt P23975)", "sequence (P23975 whole entry)": "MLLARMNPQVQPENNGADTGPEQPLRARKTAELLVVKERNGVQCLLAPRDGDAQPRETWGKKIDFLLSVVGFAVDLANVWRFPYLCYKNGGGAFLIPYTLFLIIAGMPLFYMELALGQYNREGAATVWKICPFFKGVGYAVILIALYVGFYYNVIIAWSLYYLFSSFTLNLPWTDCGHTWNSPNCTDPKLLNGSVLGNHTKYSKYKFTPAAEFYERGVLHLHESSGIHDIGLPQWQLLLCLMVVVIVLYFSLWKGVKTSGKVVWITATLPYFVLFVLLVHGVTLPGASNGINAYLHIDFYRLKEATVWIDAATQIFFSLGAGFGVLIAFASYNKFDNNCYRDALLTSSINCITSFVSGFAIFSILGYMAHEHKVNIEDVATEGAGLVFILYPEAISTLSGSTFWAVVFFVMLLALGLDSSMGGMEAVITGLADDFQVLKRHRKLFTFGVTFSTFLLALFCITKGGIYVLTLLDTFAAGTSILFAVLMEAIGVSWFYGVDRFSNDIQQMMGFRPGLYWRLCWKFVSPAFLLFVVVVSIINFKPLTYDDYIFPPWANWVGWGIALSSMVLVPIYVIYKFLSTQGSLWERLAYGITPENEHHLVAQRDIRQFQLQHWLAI", "assay": "Receptor binding panel: Norepinephrine transporter", "conditions": "K-2 at 1 × 10^−7 mol/L"}, "[4]": {"biological_target": "Neurokinin NK1 (Homo sapiens, UniProt P25103)", "sequence (P25103 whole entry)": "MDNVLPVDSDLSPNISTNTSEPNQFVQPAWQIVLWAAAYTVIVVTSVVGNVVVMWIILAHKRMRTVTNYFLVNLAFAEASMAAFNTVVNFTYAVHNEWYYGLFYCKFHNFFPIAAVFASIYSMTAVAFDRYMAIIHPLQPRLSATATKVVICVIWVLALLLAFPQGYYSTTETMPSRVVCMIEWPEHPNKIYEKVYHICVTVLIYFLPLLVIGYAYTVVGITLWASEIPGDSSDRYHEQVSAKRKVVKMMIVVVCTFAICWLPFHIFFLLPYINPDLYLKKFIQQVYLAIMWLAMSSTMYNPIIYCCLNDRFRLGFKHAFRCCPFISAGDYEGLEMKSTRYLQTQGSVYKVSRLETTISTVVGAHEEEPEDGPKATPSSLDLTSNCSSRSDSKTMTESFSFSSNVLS", "assay": "Receptor binding panel: Neurokinin NK1", "conditions": "K-2 at 1 × 10^−7 mol/L"}, "[5]": {"biological_target": "PAF (Homo sapiens, UniProt P25105)", "sequence (P25105 whole entry)": "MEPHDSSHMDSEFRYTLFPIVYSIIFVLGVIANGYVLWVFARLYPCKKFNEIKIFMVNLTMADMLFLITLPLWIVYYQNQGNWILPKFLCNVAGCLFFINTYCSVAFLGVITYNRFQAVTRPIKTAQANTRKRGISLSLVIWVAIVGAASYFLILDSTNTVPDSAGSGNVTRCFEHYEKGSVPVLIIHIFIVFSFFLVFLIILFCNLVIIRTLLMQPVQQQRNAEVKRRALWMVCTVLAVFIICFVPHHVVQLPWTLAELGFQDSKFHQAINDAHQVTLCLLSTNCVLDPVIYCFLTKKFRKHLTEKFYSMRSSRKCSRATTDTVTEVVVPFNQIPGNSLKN", "assay": "Receptor binding panel: PAF", "conditions": "K-2 at 1 × 10^−7 mol/L"}, "[6]": {"biological_target": "VIP 1 (Homo sapiens, UniProt P32241)", "sequence (P32241 31-457)": "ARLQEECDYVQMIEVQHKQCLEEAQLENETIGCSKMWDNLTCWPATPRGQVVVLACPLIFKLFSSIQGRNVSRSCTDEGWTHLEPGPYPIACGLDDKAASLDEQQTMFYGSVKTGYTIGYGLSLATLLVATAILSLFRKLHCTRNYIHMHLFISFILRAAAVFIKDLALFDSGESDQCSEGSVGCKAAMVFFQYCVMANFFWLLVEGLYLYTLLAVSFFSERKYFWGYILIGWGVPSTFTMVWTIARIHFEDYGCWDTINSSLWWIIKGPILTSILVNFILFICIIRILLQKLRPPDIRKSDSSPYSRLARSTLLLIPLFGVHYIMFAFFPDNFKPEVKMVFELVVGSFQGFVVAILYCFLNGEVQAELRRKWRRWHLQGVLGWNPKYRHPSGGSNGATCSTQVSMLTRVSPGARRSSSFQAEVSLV", "assay": "Receptor binding panel: VIP 1", "conditions": "K-2 at 1 × 10^−7 mol/L"}, "[7]": {"biological_target": "Sigma σ2 (Homo sapiens, UniProt Q5BJF2)", "sequence (Q5BJF2 whole entry)": "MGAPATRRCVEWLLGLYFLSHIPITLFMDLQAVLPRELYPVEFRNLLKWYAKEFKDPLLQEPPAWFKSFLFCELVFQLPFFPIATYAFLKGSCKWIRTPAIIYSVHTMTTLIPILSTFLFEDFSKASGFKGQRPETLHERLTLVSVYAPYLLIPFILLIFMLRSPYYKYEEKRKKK", "assay": "Receptor binding panel: Sigma σ2", "conditions": "K-2 at 1 × 10^−7 mol/L"}, "[8]": {"biological_target": "Neurokinin NK2 (Homo sapiens, UniProt P21452)", "sequence (P21452 whole entry)": "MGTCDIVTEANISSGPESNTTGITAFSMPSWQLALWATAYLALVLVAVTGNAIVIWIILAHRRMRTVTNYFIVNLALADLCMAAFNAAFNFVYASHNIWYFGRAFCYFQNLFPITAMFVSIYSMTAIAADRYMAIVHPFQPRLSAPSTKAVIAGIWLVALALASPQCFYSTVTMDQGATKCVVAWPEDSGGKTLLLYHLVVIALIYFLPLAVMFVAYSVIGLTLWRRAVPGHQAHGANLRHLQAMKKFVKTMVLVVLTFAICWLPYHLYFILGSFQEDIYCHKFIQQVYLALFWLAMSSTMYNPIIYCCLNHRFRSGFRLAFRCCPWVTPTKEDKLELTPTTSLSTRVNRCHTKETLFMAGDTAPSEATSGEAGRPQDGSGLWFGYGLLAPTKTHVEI", "assay": "Receptor binding panel: Neurokinin NK2", "conditions": "K-2 at 1 × 10^−7 mol/L"}, "[9]": {"biological_target": "Serotonin 5HT2A (Homo sapiens, UniProt P28223)", "sequence (P28223 whole entry)": "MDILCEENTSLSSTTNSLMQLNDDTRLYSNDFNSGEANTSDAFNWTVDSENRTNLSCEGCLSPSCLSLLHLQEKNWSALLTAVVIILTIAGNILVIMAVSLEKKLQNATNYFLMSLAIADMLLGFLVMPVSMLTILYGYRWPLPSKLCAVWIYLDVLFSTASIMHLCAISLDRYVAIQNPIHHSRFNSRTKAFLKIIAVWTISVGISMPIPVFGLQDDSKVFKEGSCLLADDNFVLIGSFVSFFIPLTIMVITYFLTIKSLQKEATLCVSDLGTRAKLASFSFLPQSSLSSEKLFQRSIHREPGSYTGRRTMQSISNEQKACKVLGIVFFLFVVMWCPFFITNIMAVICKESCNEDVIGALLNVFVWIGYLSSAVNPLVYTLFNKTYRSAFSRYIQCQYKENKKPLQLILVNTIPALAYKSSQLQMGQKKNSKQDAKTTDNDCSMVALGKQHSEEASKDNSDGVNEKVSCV", "assay": "Receptor binding panel: Serotonin 5HT2A", "conditions": "K-2 at 1 × 10^−7 mol/L"}, "[10]": {"biological_target": "Ca channel (Type N) (Homo sapiens, UniProt Q00975)", "assay": "Receptor binding panel: Ca channel (Type N)", "conditions": "K-2 at 1 × 10^−7 mol/L"}, "[11]": {"tested_on": "Leukotriene B4", "assay": "Receptor binding panel: Leukotriene B4", "conditions": "K-2 at 1 × 10^−7 mol/L"}, "[12]": {"biological_target": "Angiotensin AT2 (Homo sapiens, UniProt P50052)", "sequence (P50052 whole entry)": "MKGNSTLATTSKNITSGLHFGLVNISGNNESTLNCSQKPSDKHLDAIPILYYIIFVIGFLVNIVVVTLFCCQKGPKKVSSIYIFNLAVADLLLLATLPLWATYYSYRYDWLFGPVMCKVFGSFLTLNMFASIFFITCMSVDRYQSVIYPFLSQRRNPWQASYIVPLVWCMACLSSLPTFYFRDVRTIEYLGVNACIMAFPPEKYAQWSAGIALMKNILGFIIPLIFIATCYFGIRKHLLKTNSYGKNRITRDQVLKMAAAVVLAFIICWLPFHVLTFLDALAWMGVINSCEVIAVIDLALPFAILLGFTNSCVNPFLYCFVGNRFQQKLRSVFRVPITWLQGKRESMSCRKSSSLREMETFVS", "assay": "Receptor binding panel: Angiotensin AT2", "conditions": "K-2 at 1 × 10^−7 mol/L"}, "[13]": {"biological_target": "Dopamine D2 short (Homo sapiens, UniProt P14416)", "sequence (P14416 1-414 isoform P14416-2)": "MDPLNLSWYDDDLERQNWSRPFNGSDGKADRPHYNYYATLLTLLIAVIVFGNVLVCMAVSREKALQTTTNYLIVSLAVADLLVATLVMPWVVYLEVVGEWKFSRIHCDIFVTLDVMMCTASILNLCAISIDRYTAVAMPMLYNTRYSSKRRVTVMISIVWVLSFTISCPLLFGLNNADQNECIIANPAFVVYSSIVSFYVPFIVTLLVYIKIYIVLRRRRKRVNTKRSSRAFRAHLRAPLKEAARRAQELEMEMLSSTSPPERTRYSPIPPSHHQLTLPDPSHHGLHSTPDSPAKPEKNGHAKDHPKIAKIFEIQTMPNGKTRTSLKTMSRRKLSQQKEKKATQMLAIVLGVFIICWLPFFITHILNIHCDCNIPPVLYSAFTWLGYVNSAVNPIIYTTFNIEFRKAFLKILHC", "assay": "Receptor binding panel: Dopamine D2 short", "conditions": "K-2 at 1 × 10^−7 mol/L"}}}
{"smiles": "CN(CCSc1cc(F)c(OCC(N)=O)c(F)c1)S(=O)(=O)c1ccccc1", "note": "[K-2, {4-[2-(benzenesulfonyl-methyl-amino)-ethylsulfanil]-2,6-difluoro-phenoxy}-acetamide]", "values": [{"measurement": "ratio of AMPA current to reference value", "setting": "[1]", "result": "1.7±0.22"}, {"measurement": "inhibition at 0.1 µM", "setting": "[2]", "result": 0, "unit": "%"}, {"measurement": "inhibition at 0.1 µM", "setting": "[3]", "result": 0, "unit": "%"}, {"measurement": "inhibition at 0.1 µM", "setting": "[4]", "result": 0, "unit": "%"}, {"measurement": "inhibition at 0.1 µM", "setting": "[5]", "result": 0, "unit": "%"}, {"measurement": "inhibition at 0.1 µM", "setting": "[6]", "result": 0, "unit": "%"}, {"measurement": "inhibition at 0.1 µM", "setting": "[7]", "result": 4.07, "unit": "%"}, {"measurement": "inhibition at 0.1 µM", "setting": "[8]", "result": 0.61, "unit": "%"}, {"measurement": "inhibition at 0.1 µM", "setting": "[9]", "result": 9.32, "unit": "%"}, {"measurement": "inhibition at 0.1 µM", "setting": "[10]", "result": 0.31, "unit": "%"}, {"measurement": "Inhibition (%)", "setting": "[11]", "result": 0.00, "unit": "%"}, {"measurement": "inhibition at 0.1 µM", "setting": "[12]", "result": 1.05, "unit": "%"}, {"measurement": "inhibition at 0.1 µM", "setting": "[13]", "result": 5.33, "unit": "%"}]}
